Data reported in ChEMBL document CHEMBL1201862, “PubChem BioAssay data set” (2004).
Activity calls are given as the source filed them.

What was measured:
[1] = target: T1, Hexokinase-1 (Homo sapiens, UniProt P19367); test: hexokinase 1 activators, dose response, selectivity assay for HKDC1 activator project, biochemical (AID 504762); type: functional
T1 sequence (P19367 whole entry): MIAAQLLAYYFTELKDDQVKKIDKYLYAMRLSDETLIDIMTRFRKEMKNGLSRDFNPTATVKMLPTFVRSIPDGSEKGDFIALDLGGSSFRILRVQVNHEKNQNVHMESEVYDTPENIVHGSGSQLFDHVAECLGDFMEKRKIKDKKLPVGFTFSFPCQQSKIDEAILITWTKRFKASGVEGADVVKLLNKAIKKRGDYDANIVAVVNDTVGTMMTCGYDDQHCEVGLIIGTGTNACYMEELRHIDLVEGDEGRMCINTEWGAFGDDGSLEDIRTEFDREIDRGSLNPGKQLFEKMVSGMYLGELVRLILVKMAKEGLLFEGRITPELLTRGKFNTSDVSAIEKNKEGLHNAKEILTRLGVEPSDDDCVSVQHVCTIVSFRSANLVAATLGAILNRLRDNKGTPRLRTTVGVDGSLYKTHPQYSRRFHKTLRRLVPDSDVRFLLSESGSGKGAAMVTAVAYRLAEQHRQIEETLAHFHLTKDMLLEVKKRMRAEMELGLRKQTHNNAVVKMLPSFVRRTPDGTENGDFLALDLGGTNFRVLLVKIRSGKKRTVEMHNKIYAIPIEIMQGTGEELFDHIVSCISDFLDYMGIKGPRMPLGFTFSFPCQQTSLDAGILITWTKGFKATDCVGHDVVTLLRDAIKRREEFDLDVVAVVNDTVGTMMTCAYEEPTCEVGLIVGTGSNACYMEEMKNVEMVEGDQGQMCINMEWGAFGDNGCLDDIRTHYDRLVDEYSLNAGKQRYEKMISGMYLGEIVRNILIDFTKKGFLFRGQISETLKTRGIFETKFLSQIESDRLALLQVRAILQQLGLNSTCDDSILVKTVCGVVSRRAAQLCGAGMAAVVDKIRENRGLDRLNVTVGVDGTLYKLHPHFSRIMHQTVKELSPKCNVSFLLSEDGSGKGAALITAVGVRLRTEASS

[2] = target: T2, Hexokinase HKDC1 (Homo sapiens, UniProt Q2TB90); test: HKDC1 hexokinase activators, dose response, biochemical, W721R variant (AID 504730); type: functional
T2 sequence (Q2TB90 whole entry): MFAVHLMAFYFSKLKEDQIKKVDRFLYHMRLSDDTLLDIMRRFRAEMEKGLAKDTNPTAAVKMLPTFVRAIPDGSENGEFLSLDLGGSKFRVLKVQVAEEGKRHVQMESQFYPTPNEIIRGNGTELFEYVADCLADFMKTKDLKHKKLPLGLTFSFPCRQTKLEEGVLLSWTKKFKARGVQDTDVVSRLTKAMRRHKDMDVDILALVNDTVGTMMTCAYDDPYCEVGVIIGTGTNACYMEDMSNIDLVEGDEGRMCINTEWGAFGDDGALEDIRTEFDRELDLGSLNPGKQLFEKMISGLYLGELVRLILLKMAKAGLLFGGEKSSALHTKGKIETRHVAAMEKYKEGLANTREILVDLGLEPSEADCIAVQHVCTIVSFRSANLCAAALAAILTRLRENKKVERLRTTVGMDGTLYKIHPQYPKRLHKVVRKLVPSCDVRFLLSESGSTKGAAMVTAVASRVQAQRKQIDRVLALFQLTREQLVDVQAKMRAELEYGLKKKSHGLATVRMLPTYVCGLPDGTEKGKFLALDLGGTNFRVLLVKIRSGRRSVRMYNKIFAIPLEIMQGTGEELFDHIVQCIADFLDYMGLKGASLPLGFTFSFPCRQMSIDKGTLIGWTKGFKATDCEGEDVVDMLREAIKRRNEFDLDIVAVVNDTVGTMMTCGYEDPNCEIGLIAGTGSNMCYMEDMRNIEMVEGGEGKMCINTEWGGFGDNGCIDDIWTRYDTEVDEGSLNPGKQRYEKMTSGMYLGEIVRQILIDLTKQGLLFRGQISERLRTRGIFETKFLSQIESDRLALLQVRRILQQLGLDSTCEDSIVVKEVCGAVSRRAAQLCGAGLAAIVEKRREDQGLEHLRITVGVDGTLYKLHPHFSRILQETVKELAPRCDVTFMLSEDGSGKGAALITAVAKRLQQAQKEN

[3] = target: T3, Ubiquitin-conjugating enzyme E2 N (Homo sapiens, UniProt P61088); type: functional
T3 sequence (P61088 whole entry): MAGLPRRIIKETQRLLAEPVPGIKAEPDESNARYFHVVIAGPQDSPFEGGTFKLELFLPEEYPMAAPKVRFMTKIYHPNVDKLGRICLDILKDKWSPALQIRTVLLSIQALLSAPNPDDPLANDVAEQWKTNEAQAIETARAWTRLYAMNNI

[4] = target: Bcl-2-related protein A1 (Mus musculus, UniProt Q07440); type: functional;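 note: confirmatory dose–response counterscreen on Bfl-1, used to check hits from a UBC13 polyubiquitin inhibitor campaign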
Sequence of Bcl-2-related protein A1 (Q07440 whole entry): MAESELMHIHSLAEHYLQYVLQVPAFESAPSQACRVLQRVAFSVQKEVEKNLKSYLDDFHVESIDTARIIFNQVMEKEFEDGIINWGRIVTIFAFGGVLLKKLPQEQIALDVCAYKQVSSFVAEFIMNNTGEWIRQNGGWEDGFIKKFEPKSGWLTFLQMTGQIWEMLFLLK

[5] = target: T3, Ubiquitin-conjugating enzyme E2 N; type: functional; remark: listed apart in the source
[6] = target: Trypsin (Sus scrofa, UniProt P00761); test: porcine trypsin inhibitors, dose response, selectivity assay for Rce1 protease inhibitor project, biochemical, quenched peptide fluorescence, cherry-pick (AID 488789)
Sequence of Trypsin (P00761 whole entry, the tested form may be a part): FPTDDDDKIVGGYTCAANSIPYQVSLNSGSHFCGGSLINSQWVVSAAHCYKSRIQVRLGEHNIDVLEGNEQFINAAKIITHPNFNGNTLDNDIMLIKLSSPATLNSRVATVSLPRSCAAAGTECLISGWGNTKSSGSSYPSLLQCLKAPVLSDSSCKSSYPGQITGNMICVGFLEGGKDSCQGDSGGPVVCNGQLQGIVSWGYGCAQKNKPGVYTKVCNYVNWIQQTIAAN

[7] = target: T4, Fatty acid synthase (Homo sapiens, UniProt P49327); test: FAS thioesterase domain inhibitors, dose response, biochemical, kinetic fluorescence intensity (AID 624326); type: functional;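 note: rate of fluorescence rise from hydrolysis of a fluorogenic O-methyl fluorescein ester substrate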
T4 sequence (P49327 whole entry, the tested form may be a part): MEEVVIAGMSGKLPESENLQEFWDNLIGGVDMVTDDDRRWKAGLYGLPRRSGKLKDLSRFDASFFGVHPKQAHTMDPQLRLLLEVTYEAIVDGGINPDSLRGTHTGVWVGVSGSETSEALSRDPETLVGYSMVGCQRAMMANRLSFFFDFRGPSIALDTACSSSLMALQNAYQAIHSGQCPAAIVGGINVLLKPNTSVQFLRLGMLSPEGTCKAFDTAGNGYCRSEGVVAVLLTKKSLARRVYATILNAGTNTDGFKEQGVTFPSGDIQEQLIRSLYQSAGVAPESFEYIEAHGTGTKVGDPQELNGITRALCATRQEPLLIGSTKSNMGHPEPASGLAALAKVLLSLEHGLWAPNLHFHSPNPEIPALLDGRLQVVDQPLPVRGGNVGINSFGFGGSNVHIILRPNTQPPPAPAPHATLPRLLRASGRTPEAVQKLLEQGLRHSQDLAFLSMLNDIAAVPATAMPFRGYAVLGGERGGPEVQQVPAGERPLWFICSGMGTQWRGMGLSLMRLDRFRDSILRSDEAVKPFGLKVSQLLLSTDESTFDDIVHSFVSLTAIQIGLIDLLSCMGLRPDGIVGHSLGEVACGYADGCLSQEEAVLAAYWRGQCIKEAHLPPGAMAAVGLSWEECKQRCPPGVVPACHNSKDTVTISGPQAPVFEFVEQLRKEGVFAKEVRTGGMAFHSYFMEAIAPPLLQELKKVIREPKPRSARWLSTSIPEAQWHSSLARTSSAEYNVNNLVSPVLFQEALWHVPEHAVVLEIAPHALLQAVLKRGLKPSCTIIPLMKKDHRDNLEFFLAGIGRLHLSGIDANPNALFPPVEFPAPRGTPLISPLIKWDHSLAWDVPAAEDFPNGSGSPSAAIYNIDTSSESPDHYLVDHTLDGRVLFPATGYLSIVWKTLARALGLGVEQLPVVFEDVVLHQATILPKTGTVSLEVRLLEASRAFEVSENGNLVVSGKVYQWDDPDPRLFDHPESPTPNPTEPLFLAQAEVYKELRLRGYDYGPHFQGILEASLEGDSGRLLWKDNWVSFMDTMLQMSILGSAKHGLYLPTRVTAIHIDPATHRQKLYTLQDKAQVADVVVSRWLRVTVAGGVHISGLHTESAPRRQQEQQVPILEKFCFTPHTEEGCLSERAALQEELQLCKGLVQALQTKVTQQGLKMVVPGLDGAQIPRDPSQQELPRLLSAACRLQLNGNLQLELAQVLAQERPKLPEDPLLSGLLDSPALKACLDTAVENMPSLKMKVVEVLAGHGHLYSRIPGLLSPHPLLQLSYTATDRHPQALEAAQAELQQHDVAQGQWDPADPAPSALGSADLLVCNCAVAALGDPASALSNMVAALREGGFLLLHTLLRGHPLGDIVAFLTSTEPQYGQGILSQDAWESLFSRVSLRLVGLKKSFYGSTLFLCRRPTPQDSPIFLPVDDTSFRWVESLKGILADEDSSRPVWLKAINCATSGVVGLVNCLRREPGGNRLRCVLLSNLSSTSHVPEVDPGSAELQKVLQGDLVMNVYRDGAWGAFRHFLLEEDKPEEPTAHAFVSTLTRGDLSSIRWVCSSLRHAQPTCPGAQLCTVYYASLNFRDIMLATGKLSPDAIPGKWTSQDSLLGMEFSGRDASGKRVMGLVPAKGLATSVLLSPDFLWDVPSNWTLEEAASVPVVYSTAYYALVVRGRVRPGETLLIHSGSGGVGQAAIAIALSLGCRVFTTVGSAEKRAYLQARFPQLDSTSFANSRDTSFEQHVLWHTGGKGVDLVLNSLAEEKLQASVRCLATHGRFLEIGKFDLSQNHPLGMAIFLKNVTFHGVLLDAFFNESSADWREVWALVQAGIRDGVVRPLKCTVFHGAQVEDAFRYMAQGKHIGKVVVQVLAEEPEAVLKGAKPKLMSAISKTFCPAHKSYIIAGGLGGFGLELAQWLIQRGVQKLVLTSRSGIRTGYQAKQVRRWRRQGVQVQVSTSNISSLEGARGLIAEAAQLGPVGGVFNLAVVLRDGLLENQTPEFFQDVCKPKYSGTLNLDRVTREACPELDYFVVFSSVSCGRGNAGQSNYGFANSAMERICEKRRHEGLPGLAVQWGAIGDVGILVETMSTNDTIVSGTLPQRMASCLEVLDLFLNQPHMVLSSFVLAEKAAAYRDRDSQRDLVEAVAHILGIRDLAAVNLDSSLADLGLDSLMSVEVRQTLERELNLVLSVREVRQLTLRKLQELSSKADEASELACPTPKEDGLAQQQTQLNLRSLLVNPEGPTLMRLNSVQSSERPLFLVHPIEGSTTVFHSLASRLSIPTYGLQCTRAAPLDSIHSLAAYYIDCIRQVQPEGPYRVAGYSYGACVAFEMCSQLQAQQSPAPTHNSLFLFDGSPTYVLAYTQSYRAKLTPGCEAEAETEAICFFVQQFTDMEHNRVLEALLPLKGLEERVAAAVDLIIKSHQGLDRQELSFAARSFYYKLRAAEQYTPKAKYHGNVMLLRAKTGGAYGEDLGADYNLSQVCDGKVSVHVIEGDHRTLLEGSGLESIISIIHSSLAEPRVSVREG

[8] = target: T5, Cannabinoid receptor 2 (Homo sapiens, UniProt P34972); test: SAR analysis of antagonists of the Cannabinoid Receptor 2 using an Image-Based Assay. [Related pubchem assays (depositor defined):AID2013, AID2026]; type: functional
T5 sequence (P34972 whole entry): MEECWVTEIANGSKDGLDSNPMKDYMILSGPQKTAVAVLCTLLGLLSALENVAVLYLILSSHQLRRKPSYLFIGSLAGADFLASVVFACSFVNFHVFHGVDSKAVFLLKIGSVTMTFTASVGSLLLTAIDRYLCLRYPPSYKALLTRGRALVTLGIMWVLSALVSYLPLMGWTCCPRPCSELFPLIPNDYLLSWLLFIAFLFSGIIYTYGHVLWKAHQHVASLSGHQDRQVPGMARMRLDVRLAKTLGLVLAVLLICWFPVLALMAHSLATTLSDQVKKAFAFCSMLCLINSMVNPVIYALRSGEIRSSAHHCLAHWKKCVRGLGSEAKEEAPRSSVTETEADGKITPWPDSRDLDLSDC

[9] = target: T6, G-protein coupled receptor 55 (Homo sapiens, UniProt Q9Y2T6); test: GPR55 antagonist potency of analogs, SAR follow-up, imaging, U2OS, beta-arrestin-GFP, LPI agonist, set 2 (AID 2820); type: functional
T6 sequence (Q9Y2T6 whole entry): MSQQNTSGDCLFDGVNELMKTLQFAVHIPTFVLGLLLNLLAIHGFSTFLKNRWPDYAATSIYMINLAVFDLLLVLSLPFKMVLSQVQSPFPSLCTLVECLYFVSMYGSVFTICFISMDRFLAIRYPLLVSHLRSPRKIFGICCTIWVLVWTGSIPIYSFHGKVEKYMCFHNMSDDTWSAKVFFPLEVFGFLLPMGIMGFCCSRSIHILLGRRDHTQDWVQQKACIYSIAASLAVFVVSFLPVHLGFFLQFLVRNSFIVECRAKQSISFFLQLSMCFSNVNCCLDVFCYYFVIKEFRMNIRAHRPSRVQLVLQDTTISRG

[10] = target: T7, Small ubiquitin-related modifier 1 (Homo sapiens, UniProt P63165); test: inhibitors of SUMO1 peptide binding, dose response, biochemical, fluorescence polarization, uHTS hits (AID 624382); type: functional; settings: read-out: IC50_Mean
T7 sequence (P63165 whole entry): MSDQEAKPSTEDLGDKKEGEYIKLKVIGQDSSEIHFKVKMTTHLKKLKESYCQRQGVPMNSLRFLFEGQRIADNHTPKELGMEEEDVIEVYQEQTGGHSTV

[11] = target: T8, CAAX prenyl protease 2 (Saccharomyces cerevisiae S288c, UniProt Q03530); type: biochemical
T8 sequence (Q03530 whole entry): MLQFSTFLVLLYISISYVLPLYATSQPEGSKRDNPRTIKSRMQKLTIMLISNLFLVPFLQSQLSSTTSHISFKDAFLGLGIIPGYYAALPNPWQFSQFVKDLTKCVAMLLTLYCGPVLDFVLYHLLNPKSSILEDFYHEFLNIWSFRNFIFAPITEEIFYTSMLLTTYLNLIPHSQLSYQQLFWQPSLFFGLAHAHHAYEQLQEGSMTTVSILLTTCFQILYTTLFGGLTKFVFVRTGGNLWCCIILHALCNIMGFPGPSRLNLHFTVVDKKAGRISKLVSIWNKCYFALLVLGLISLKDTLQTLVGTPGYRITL

[12] = target: T6, G-protein coupled receptor 55; test: GPR55 antagonists blocking LPI-driven arrestin recruitment, primary screen, imaging, U2OS, beta-arrestin-GFP, LPI agonist (AID 2013); type: functional;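 note: antagonist potency measured as reduced agonist-driven arrestin aggregation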
[13] = target: T9, G-protein coupled receptor 35 (Homo sapiens, UniProt Q9HC97); test: SAR analysis of Agonists of the GPR35 Receptor using an Image-Based Assay - Set 2. [Related pubchem assays (depositor defined):AID2013, AID2026]; type: functional
T9 sequence (Q9HC97 whole entry): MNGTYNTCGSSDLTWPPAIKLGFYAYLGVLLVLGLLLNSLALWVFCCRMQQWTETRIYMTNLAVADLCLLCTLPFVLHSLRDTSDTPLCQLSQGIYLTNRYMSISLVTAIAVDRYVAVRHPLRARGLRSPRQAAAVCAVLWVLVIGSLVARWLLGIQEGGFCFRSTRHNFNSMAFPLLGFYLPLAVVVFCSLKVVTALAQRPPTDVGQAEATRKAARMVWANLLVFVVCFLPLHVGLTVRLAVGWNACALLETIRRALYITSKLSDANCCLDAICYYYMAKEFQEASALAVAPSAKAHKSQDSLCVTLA

[14] = target: T7, Small ubiquitin-related modifier 1; test: inhibitors of SUMO1 partner interactions, dose response, biochemical, FRET (AID 624383); type: functional; settings: read-out: IC50_Mean
[15] = target: T10, Cannabinoid receptor 1 (Homo sapiens, UniProt P21554); test: SAR analysis of antagonists of the Cannabinoid Receptor 1 using an Image-Based Assay - Set 2. [Related pubchem assays (depositor defined):AID2013, AID2026]; type: functional
T10 sequence (P21554 whole entry, the tested form may be a part): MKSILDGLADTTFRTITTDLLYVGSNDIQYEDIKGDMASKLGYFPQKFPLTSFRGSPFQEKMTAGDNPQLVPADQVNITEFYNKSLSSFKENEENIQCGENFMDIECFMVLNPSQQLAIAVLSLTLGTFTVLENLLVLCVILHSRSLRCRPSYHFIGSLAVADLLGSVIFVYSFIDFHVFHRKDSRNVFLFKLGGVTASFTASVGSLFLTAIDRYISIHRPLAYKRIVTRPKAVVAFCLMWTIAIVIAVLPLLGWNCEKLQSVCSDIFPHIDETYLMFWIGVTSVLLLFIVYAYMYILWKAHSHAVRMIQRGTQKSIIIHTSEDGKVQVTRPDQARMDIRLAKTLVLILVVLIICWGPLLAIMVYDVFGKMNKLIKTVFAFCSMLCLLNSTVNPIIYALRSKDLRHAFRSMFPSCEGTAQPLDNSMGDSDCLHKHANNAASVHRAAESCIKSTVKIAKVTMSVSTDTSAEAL

[16] = target: T4, Fatty acid synthase; test: FAS thioesterase domain inhibitors, dose response, biochemical, endpoint fluorescence intensity, uHTS hits (AID 624327); type: functional;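 note: fluorescence from hydrolysis of an O-methyl fluorescein acyl ester substrate by the enzyme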
[17] = target: T5, Cannabinoid receptor 2; test: SAR analysis of agonists of the Cannabinoid Receptor 2 using an Image-Based Assay. [Related pubchem assays (depositor defined):AID2013, AID2026]; type: functional
[18] = target: T9, G-protein coupled receptor 35; test: SAR analysis of Antagonists of the GPR35 Receptor using an Image-Based Assay - Set 3. [Related pubchem assays (depositor defined):AID2013, AID2026]; type: functional
[19] = tested on: Streptococcus; test: Group A Streptococcus viability loss, dose response, counter-screen for streptokinase expression inhibitor project, luminescence, BacTiterGlo (AID 1915); type: functional, organism-based; settings: read-out: EC50;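 note: potency for reduction of bacterial viability or growth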
[20] = target: T11, Streptokinase A (Streptococcus pyogenes serotype M1, UniProt P10520); test: S. pyogenes streptokinase expression inhibitors, potency, dose response, plasminogen activation absorbance, OD405 (AID 1914); type: functional, Streptococcus pyogenes M1 GAS;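 note: secreted streptokinase activity via plasminogen activation per viability signal from cell pellet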
T11 sequence (P10520 whole entry): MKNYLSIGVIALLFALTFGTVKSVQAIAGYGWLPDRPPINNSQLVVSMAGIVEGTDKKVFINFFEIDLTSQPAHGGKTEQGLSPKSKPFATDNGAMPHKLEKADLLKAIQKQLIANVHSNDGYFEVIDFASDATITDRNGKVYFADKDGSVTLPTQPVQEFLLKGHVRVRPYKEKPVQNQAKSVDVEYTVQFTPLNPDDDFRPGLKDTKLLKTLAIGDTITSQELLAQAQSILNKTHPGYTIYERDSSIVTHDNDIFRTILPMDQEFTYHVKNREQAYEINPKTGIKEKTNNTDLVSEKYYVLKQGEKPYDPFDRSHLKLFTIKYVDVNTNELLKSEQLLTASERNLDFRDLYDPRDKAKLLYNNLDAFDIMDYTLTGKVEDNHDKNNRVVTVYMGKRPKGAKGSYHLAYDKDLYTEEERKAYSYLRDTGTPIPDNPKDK

[21] = target: T10, Cannabinoid receptor 1; test: SAR analysis of agonists of the Cannabinoid Receptor 1 using an Image-Based Assay - Set 2. [Related pubchem assays (depositor defined):AID2013, AID2026]; type: functional
[22] = target: T9, G-protein coupled receptor 35; test: SAR analysis of Antagonists of the GPR35 Receptor using an Image-Based Assay - Set 6. [Related pubchem assays (depositor defined):AID2013, AID2026]; type: functional
[23] = target: T9, G-protein coupled receptor 35; test: SAR analysis of Agonists of the GPR35 Receptor using an Image-Based Assay - Set 4. [Related pubchem assays (depositor defined):AID2013, AID2026]; type: functional
[24] = target: T5, Cannabinoid receptor 2; test: SAR analysis of antagonists of the Cannabinoid Receptor 2 using an Image-Based Assay - Set 3. [Related pubchem assays (depositor defined):AID2013, AID2026]; type: functional
[25] = target: T10, Cannabinoid receptor 1; test: SAR analysis of antagonists of the Cannabinoid Receptor 1 using an Image-Based Assay - Set 4. [Related pubchem assays (depositor defined):AID2013, AID2026]; type: functional
[26] = target: T10, Cannabinoid receptor 1; test: SAR analysis of agonists of the Cannabinoid Receptor 1 using an Image-Based Assay - Set 4. [Related pubchem assays (depositor defined):AID2013, AID2026]; type: functional
[27] = target: T6, G-protein coupled receptor 55; test: SAR Analysis of Selective Antagonists of GPR55 using an Image-Based Assay - Set 4. [Related pubchem assays (depositor defined):AID2013, AID2026]; type: functional
[28] = target: T5, Cannabinoid receptor 2; test: SAR analysis of agonists of the Cannabinoid Receptor 2 using an Image-Based Assay - Set 3. [Related pubchem assays (depositor defined):AID2013, AID2026]; type: functional

O=S(=O)(NC1c2cccc3cccc(c23)C1N1CCN(CCO)CC1)c1ccccc1 (stereo not drawn)
EC50 [1]: 24 µM (inactive) | EC50 [2]: 18.1 µM (active)

CCCCN(C(=O)c1ccco1)c1nnc(-c2cc(OC)c(OC)c(OC)c2)s1
IC50 [3]: 10.4 µM (active) | IC50 [4]: > 20 µM (inactive) | IC50 [5]: 9.79 µM (active)

CC(C)(C)OC(=O)N1CCC(c2cc(O)n3ncc(C(=O)Nc4ccc(F)c(Cl)c4)c3n2)CC1
AC50 [6]: 77.2 µM (active) | IC50 [7]: 5.64 µM (active) | IC50 [8]: > 32 µM (inactive) | IC50 [9]: 0.948 µM (active) | IC50 [10]: > 66.6 µM (inactive) | AC50 [11]: 17.8 µM (active) | IC50 [12]: 1.41 µM (active) | EC50 [13]: 5.23 µM (active) | IC50 [14]: 9.68 µM (active) | IC50 [15]: 10.5 µM (inactive) | IC50 [16]: 8.24 µM (active) | EC50 [17]: > 32 µM (inactive) | IC50 [18]: 25.4 µM (inactive) | EC50 [19]: > 150 µM (not active) | EC50 [20]: > 150 µM (not active) | EC50 [21]: > 32 µM (inactive)

Cc1nc(N2CCN(C(=O)C3CCCO3)CC2)c2c3c(sc2n1)CCCC3 (stereo not drawn)
IC50 [22]: > 32 µM (inactive) | EC50 [23]: > 32 µM (inactive) | IC50 [24]: > 32 µM (inactive) | IC50 [25]: > 32 µM (inactive) | EC50 [26]: > 32 µM (inactive) | IC50 [27]: > 32 µM (inactive) | EC50 [28]: > 32 µM (inactive)
